The values below come from US12252497B2, “Ras inhibitors” (Revolution Medicines, Inc., priority 2021, dated 2025).

One data set concerns AsPC-1 (K-Ras G12D). Nature of the data set: Potency assay: pERK. The note with it: Homo sapiens. In kind it is cell-based. The source says:
The purpose of this assay was to measure the ability of test compounds to inhibit K-Ras in cells. Activated K-Ras induces increased phosphorylation of ERK at Threonine 202 and Tyrosine 204 (pERK). This procedure measures a decrease in cellular pERK in response to test compounds. The procedure described below in NCI-H358 cells is applicable to K-Ras G12C.
Note: This protocol may be executed substituting other cell lines to characterize inhibitors of other RAS variants, including, for example, AsPC-1 (K-Ras G12D), Capan-1 (K-Ras G12V), or NCI-H1355 (K-Ras G13C).
NCI-H358 cells were grown and maintained using media and procedures recommended by the ATCC. On the day prior to compound addition, cells were plated in 384-well cell culture plates (40 μl/well) and grown overnight in a 37° C., 5% CO2 incubator. Test compounds were prepared in 10, 3-fold dilutions in DMSO, with a high concentration of 10 mM. On the day of assay, 40 nL of test compound was added to each well of cell culture plate using an Echo550 liquid handler (LabCyte®). Concentrations of test compound were tested in duplicate. After compound addition, cells were incubated 4 hours at 37° C., 5% CO2. Following incubation, culture medium was removed and cells were washed once with phosphate buffered saline.
In some experiments, cellular pERK level was determined using the AlphaLISA SureFire Ultra p-ERK1/2 Assay Kit (PerkinElmer). Cells were lysed in 25 μL lysis buffer, with shaking at 600 RPM at room temperature. Lysate (10 μL) was transferred to a 384-well Opti-plate (PerkinElmer) and 5 μL acceptor mix was added. […] Signal was read on an Envision plate reader (PerkinElmer) using standard AlphaLISA settings. […] Signal was plotted vs. the decadal logarithm of compound concentration, and IC50 was determined by fitting a 4-parameter sigmoidal concentration response model.
In other experiments, cellular pERK was determined by In-Cell Western. […] Signal was plotted vs. the decadal logarithm of compound concentration, and IC50 was determined by fitting a 4-parameter sigmoidal concentration response model.

In a further data set the test system is SW1573. The note with it: Canon et al., Nature 575:217-223 (2019); cited from earlier work.
For data set [1] the following is noted: ester bond, 18-membered ring, DCM, 25.0 °C.
[2] abbreviates: ASPC1, read-out: IC50 in the pERK potency assay.

Read-outs that look alike come from different tables or passages of the source.

Take `CCn1c(-c2cccnc2[C@H](C)OC)c2c3cc(ccc31)-c1cc(cc(C(F)F)c1)C[C@H](NC(=O)[C@H](C(C)C)N1CC[C@]3(CCN(C(=O)[C@@H]4N[C@@H]4C4CC4)C3)C1)C(=O)N1CCC[C@H](N1)C(=O)OCC(C)(C)C2` [Example A17]: the IC50 with AsPC-1 (K-Ras G12D) (setting [2]) was over 8 µM.
Take `C=CC(=O)N1CCN(c2nc(=O)n(-c3c(C)ccnc3C(C)C)c3nc(-c4c(O)cccc4F)c(F)cc23)[C@@H](C)C1` [AMG510]: in the data set on SW1573, the “sensitivity of cell line to RAS inhibitor” value is given as “insensitive”.
On to `CCn1c(-c2cccnc2[C@H](C)OC)c2c3cc(ccc31)-c1csc(n1)C[C@H](NC(=O)[C@H](C1CCCC1)N1CC[C@]3(CCN(C(=O)[C@@]4(C)CN4)C3)C1)C(=O)N1CCC[C@H](N1)C(=O)OCC(C)(C)C2` [Example A5], for which the half-inhibitory concentration (IC50) in the data set with AsPC-1 (K-Ras G12D) (setting [2]) is over 8 µM.
For the compound `CO[C@@H](C)c1ncc(N2CCN3CCOC[C@@H]3C2)cc1-c1c2c3cc(ccc3n1CC(F)(F)F)N1CCO[C@@H](C[C@H](NC(=O)OC(C)(C)C)C(=O)N3CCC[C@H](N3)C(=O)OCC(C)(C)C2)C1`, the ring closure, isolated yield in data set [1] (from CO[C@@H](C)c1ncc(N2CCN3CCOC[C@@H]3C2)cc1-c1c(CC(C)(C)CO)c2cc(N3CCO[C@@H](C[C@H](NC(=O)OC(C)(C)C)C(=O)N4CCC[C@@H](C(=O)O)N4)C3)ccc2n1CC(F)(F)F, EDCI/HOBt/NMM, 10.6 mM) was determined as 48%.
The compound `CCn1c(-c2cc(N3CCN4CCC[C@@H]4C3)cnc2[C@H](C)OC)c2c3cc(ccc31)-c1cccc(c1)C[C@H](NC(=O)OC(C)(C)C)C(=O)N1CCC[C@H](N1)C(=O)OCC(C)(C)C2` registered a ring closure, isolated yield in data set [1] (from CCn1c(-c2cc(N3CCN4CCC[C@@H]4C3)cnc2[C@H](C)OC)c(CC(C)(C)CO)c2cc(-c3cccc(C[C@H](NC(=O)OC(C)(C)C)C(=O)N4CCC[C@@H](C(=O)O)N4)c3)ccc21, EDCI/HOBt/DIPEA, 16.7 mM) of 42%.
In the case of `CCn1c(-c2cccnc2[C@H](C)OC)c2c3cc(ccc31)-c1cc(cc(C(F)F)c1)C[C@H](NC(=O)[C@H](C1CCCC1)N1CC[C@]3(CCN(C(=O)[C@@H]4N[C@@H]4C4CC4)C3)C1)C(=O)N1CCC[C@H](N1)C(=O)OCC(C)(C)C2` [Example A18], in the data set on AsPC-1 (K-Ras G12D) (ASPC1, AsPC-1 (K-Ras G12D) cells, read-out: IC50 in the pERK potency assay), the IC50 was over 8 µM.
In data set [1] (from CCn1c(-c2cc(N3CCN4CCOC[C@@H]4C3)cnc2[C@H](C)OC)c(CC(C)(C)CO)c2cc(-c3csc(C[C@H](NC(=O)OC(C)(C)C)C(=O)N4CCC[C@@H](C(=O)O)N4)n3)ccc21, EDCI/HOBt/DIPEA, 11.3 mM), `CCn1c(-c2cc(N3CCN4CCOC[C@@H]4C3)cnc2[C@H](C)OC)c2c3cc(ccc31)-c1csc(n1)C[C@H](NC(=O)OC(C)(C)C)C(=O)N1CCC[C@H](N1)C(=O)OCC(C)(C)C2` gave a ring closure, isolated yield of 52%.
